Earlier results, collected in US8961928B2, “Ligand and metal complex having the same” (National Chiao Tung University, priority 2012, dated 2015).
Where two headings read alike, the source gives them in different places.

| Relaxivity r1 (pH 7.5 ± 0.1, data from Inorg. Chem., 2005, 44, 382) [mM⁻¹ s⁻¹] | Relaxivity r1 (pH 7.6 ± 0.1, data from Inorg. Chem., 2001, 40, 2170-2176) [mM⁻¹ s⁻¹] | SMILES |
| --- | --- | --- |
| 3.85 ± 0.03 |  | O=C([O-])CN(CCCN(CC(=O)[O-])CC(=O)[O-])CCN(CC(=O)[O-])CC(=O)[O-].[Gd+3] [[Gd(TTDA)]^2−] |
|  | 3.89 ± 0.03 | O=C([O-])CN(CCN(CC(=O)[O-])CC(=O)[O-])CCN(CC(=O)[O-])CC(=O)[O-].[Gd+3] [[Gd(DTPA)]^2−] |
